Laboratory results published in patent US12083140B2, “Pharmaceutical composition for preventing and treating glaucoma, containing adenosine derivative” (FUTURE MEDICINE CO., LTD., priority 2017, dated 2024).

Key:
[1] = test system: histidine-requiring Salmonella (TA98, TA100, TA1535 and TA1537 strains) and tryptophan-requiring E. coli (WP2uvrA (pKM101) strain); experiment: Genotoxicity, back-mutation test with and without metabolic activation; type: cell-based
[2] = biological target: hERG (Homo sapiens, UniProt Q12809); experiment: Cardiotoxicity, hERG ligand binding assay (fluorescence polarization)
hERG, sequence (Q12809 whole entry): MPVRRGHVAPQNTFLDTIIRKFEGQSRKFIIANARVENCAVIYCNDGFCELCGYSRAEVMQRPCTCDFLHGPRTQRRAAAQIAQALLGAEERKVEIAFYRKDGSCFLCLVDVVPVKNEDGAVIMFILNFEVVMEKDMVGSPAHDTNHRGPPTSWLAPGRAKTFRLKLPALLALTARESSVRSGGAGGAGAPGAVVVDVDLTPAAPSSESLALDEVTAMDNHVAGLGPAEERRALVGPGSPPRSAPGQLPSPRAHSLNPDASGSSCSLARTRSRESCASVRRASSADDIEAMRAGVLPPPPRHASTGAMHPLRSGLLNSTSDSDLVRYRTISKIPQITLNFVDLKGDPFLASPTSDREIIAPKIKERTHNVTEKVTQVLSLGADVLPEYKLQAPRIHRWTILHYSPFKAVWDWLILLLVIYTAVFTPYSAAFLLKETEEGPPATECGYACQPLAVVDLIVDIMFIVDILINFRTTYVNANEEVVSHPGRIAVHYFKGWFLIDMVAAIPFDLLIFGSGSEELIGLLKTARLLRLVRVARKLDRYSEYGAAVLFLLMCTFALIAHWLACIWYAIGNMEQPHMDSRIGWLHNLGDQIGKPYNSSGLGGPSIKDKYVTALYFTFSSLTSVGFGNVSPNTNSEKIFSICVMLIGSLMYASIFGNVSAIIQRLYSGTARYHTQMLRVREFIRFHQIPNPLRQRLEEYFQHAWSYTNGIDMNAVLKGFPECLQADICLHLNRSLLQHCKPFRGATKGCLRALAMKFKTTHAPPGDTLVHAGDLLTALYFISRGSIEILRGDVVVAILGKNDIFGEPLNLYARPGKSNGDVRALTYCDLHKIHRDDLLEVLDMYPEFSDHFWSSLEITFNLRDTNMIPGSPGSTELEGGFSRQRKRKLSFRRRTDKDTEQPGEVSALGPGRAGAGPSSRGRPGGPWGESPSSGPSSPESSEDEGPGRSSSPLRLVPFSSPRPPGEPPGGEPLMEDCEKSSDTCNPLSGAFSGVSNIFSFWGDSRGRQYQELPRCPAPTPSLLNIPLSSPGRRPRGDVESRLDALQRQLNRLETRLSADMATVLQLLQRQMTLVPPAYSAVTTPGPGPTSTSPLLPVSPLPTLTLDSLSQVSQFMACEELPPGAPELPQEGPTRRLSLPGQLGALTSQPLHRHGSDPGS

[3] = test system: each cell line; experiment: Cytotoxicity, Cyto X cell viability assay kit; type: cell-based
[4] = test system: MMP (MMP2, MMP9); experiment: MMP enzyme protein and mRNA expression in trabecular meshwork tissue; type: in vivo, C57BL/6J mice; conditions: Example 2 oral 20 mg/kg once a day and 10 mg/kg twice a day; acetazolamide 4.17 mg/kg once a day
Experimental: (§1) In Experimental Example 10, the expression amounts of these proteins and mRNAs in MMP and TIMP enzymes were measured for the eye tissues of the respective laboratory animals which the measurement of the intraocular pressure was completed, and the results are shown in FIG. 14 to FIG. 17. FIG. 14 and FIG. 15 show protein expression amounts of MMP (MMP2, MMP9) and TIMP (TIMP 1, TIMP2) enzymes, respectively. FIG. 16 and FIG. 17 show mRNA expression levels. In FIG. 14 to FIG. 17, Normal represents the expression level of the animal to which the dexamethasone was not treated in Experimental Example 10, Control represents the expression level of the animal to which only the excipient was administered in Experimental Example 10, and Acetazolamide represents the expression level of the animal to which acetazolamide was administered in Experimental Example 10.

[5] = test system: extracellular matrix proteins (Fibronectin, SMA and MYOC); experiment: Anti-fibrotic effect on trabecular meshwork tissue (immunostaining); type: in vivo, C57BL/6J mice; conditions: Example 2 oral 20 mg/kg once a day and 10 mg/kg twice a day; acetazolamide 4.17 mg/kg once a day
Experimental: In Experimental Example 10, the ocular tissues of each laboratory animal after measurement of intraocular pressure were extracted and sectioned and immunostaining using antibody was performed to confirm the expression of extracellular matrix proteins (Fibronectin, SMA and MYOC) and the results are shown in FIG. 13. In FIG. 13, Normal represents the trabecular meshwork of the animal which dexamethasone was not treated with in Experimental Example 10, Control represents the trabecular meshwork tissue of the animal to which only the excipient was administered in Experimental Example 10, Acetazolamide represents the trabecular meshwork tissue of the animal to which acetazolamide was administered in Experimental Example 10. Fluorescently stained tissue was observed under fluorescence microscope under the same conditions (magnification 200×, exposure time 1 sec).

[6] = test system: TPA-induced mouse ear edema; experiment: Anti-inflammatory activity, TPA-induced mouse ear edema; type: in vivo, ICR mice; conditions: 0.5% in acetone
Experimental: In order to investigate the anti-inflammatory activity of the derivatives of the present invention, the animal experiments were performed as below. Seven-week-old male ICR mice were treated with TPA (12-O-tetradecanoylphorbol 13-acetate, […]) in the right ear. […] The same experiment was performed by treating hydrocortisone used as a treatment agent for inflammation as a control at the same concentration.
Subsequently, secondly, the adenosine derivative compound of the present invention was treated after 6 hours from TPA treatment. Twenty-four hours after TPA treatment, the animals were euthanized using the cervical dislocation method. Then, a right ear sample was obtained using a 6 mm diameter punch. The activity could be confirmed by weighing using a microbalance. The inhibition rate (%) was calculated using the following Equation 1.

[7] = test system: rats; experiment: Single dose toxicity test; type: in vivo
[8] = test system: intraocular pressure; experiment: Intraocular pressure reduction after oral administration, dexamethasone-elevated intraocular pressure; type: in vivo, C57BL/6J mice; conditions: oral, 5, 10, 20 mg/kg once a day and 10 mg/kg twice a day, 22 days
Experimental: In order to examine the intraocular pressure lowering effect of the derivatives of the present invention, the following animal experiments were performed. […] As controls, only the above excipients were administered to laboratory animals with elevated intraocular pressure once a day, or experimental animals were not treated with dexamethasone or with 4.17 mg/kg of acetazolamide, an intraocular pressure lowering agent, once a day.
Then, the intraocular pressure of the test animal was measured at predetermined intervals for 22 days, and the results are shown in FIG. 8 to FIG. 12. In FIG. 8 to FIG. 12, Control represents a control group in which dexamethasone is not treated to laboratory animals, Vehicle represents a control group in which only excipients were orally administered to laboratory animals with elevated intraocular pressure, and Acetazolamide represents control group in which acetazolamide, an intraocular pressure lowering agent was orally administered to laboratory animals with elevated intraocular pressure.

[9] = test system: TIMP (TIMP 1, TIMP2); experiment: TIMP enzyme protein and mRNA expression in trabecular meshwork tissue; type: in vivo, C57BL/6J mice; conditions: Example 2 oral 20 mg/kg once a day and 10 mg/kg twice a day; acetazolamide 4.17 mg/kg once a day
Experimental: as §1

O[C@@H]1[C@H](O)CS[C@H]1n1cnc2c(NCc3cccc(Cl)c3)nc(Cl)nc21 [Example 2, (2R,3R,4S)-2-(2-chloro-6-(3-chlorobenzylamino)-9H-purin-9-yl)tetrahydrothiophene-3,4-diol]
toxicity, Genotoxicity test [1]: Not found | number of back-mutation reversion colonies ([1]; all doses of each strain, regardless of metabolic activation): did not exceed twice the negative control | toxicity, Cardiotoxicity test [2]: Not found | inhibition at 10 µM ([2]; human, hERG channel protein (ligand binding assay), probe red fluorescent hERG channel ligand tracer, 10 μM, read-out: inhibition rate (hERG channel ligand tracer binding)): ≤ 50% | toxicity, Cytotoxicity Test [3]: Not found | protein and mRNA expression levels of MMP enzyme compared with the normal group [4]: significantly increased | expression of fibronectin, SMA and MYOC protein in trabecular meshwork tissue [5]: greatly reduced | TPA-induced mouse ear edema [6]: reduced by a small amount | toxicity, Single dose toxicity test ([7]; rat, in vivo): Not found | dead animals ([7]; single dose of 2,000 mg/kg, 5 male rats and 5 female rats): there was no dead animal | intraocular pressure, dose dependence [8]: reduction in intraocular pressure, which was dependent on the dose | protein and mRNA expression levels of TIMP enzyme compared with the normal group [9]: significantly decreased
